Values quoted from earlier work, collected in US7282225B1, “Composition and methods for improving retinal health” (Occular Technologies, Inc., priority 2006, dated 2007).
Like-named read-outs stand apart in the source and are kept apart here.

Tests used:
animals [1] = details: animal study, alpha-lipoic acid supplements
animals [2] = system: animals
macular degeneration = details: dietary or supplement intake, case-control study
AMD [3] = details: diet of 6 mg per day
asthma = details: 1-2 g/day
bladder cancer = details: 500 mg daily for 10 years or more
heart disease = details: more than 700 mg/day versus 60 mg/day or less
monocytes = details: 2 g/day
people = details: more than 750 mg/day
[4] = system: patients with atherosclerosis; details: 2 g/day
colon cancer [5] = details: 3 g/day
[6] = system: restenosis after angioplasty; details: 500 mg/day
colon cancer [7] = details: intake of more than 157 mg/day
[8] = healthy, young men
[9] = system: age-related macular degeneration (AMD); details: participants at high risk (intermediate AMD, or advanced AMD in one eye only), daily oral tablets
AMD [10] = system: AMD

In the case of `O=C(O)CCCCC1CCSS1` (stereo not drawn) [alpha-lipoic acid, Alpha-Lipoic Acid], the “side effects associated with amikacin and gentamicin” value (animals [1]) is listed as “reduced side effects, particularly toxicity to the ear”, the “toxic side effects associated with cisplatin and cyclophosphamide” value (animals [2]) is listed as “protected against toxic side effects” and the cholesterol levels (rats) is listed as “improved cholesterol levels”. The thyroid hormone function (rats) was “altered thyroid hormone function”.
For `CC1=C[C@H](O)CC(C)(C)[C@H]1/C=C/C(C)=C/C=C/C(C)=C/C=C/C=C(C)/C=C/C=C(C)/C=C/C1=C(C)C[C@@H](O)CC1(C)C` [lutein, Lutein], the “association of intake with risk of macular degeneration” value (from here on “association of intake”) (macular degeneration) is given as “most strongly associated with a reduced risk” and the “lower prevalence of AMD” value (AMD [3]) is given as 43%.
For `CC1=C(/C=C/C(C)=C/C=C/C(C)=C/CO)C(C)(C)CCC1` [retinol, Retinol], the “association of intake” value (macular degeneration) is listed as “no effect”.
For `O=C1O[C@H]([C@@H](O)CO)C(O)=C1O` [vitamin C, ascorbic acid], the open angle glaucoma (cataracts and glaucoma; large doses) is listed as “can be reversed”, the “risk of cataracts and glaucoma” value (cataracts and glaucoma; supplementation) is listed as “significantly lower” and the asthma symptoms (asthma) is listed as “reduce asthma symptoms significantly”. For the same compound, the “reduction of risk of developing bladder cancer” value (bladder cancer) was 60%, the “lower risk of dying from heart disease” value (heart disease) was 62% and the “adhesion of monocytes to the lining of blood vessels” value (monocytes) was “reduce adhesion of monocytes”. For the same compound, the “reduction of risk of dying prematurely” value (people) was 60%, the vasomotor dysfunction [4] was “effectively reverses” and the “association of intake” value (macular degeneration) was “little effect”. For the same compound, the “polyp growth in colon cancer” value (colon cancer [5]) was “effectively prevent further polyp growth”, the “restenosis (reclosing of opened arteries) after angioplasty” value [6] was “significantly reduced” and the “reduction of risk of developing colon cancer” value (colon cancer [7]) was 50%. For the same compound, the “minimum intake required to completely saturate the blood plasma with vitamin C” value [8] was ≥ 1000 mg/day.
In the case of `Cc1c(C)c2c(c(C)c1O)CC[C@@](C)(CCC[C@H](C)CCC[C@H](C)CCCC(C)C)O2` [vitamin E, alpha-tocopherol], the “association of intake” value (macular degeneration) is listed as “negative effects”.
For `CC1=C(/C=C/C(C)=C/C=C/C(C)=C/C=C/C=C(C)/C=C/C=C(C)/C=C/C2=C(C)C[C@@H](O)CC2(C)C)C(C)(C)C[C@H](O)C1` [zeaxanthin, Zeaxanthin], the “association of intake” value (macular degeneration) is listed as “most strongly associated with a reduced risk”.
For `[O-2].[Zn+2]` [zinc alone], the “Reduced risk of developing advanced AMD” value [9] is given as “about 21%”, the “Reduced risk of vision loss” value [9] is given as “about 11%” and the “Reduced risk of developing advanced AMD” value ([9]; listed as Zinc Alone) is given as “AMD by about 21%”. For the same compound, the “Reduced risk of vision loss” value ([9]; listed as Zinc Alone) was “loss by about 11%”.
For `[Zn]` [zinc], the accumulation of drusen (AMD [10]; zinc group) is given as “less accumulation of drusen” and the “treatment of AMD” value (AMD [10]; zinc supplements) is given as “effective”.
